Reference: US7109193B2, “Tricyclic diazepines tocolytic oxytocin receptor antagonists” (Wyeth, priority 2001, dated 2006)

These compounds were tested against T1, human oxytocin receptor (Homo sapiens, UniProt P30559) (assay: Oxytocin binding in Chinese Hamster Ovary cell membranes expressing human oxytocin receptors). Settings: 100 nM, CHO cell membranes, [3H]oxytocin, values without parentheses, read-out: OT % inhibition @ 100% nM.
T1 construct: host or cells: CHO cells (pcDNA3.1 vector)
T1 sequence (P30559 1-389): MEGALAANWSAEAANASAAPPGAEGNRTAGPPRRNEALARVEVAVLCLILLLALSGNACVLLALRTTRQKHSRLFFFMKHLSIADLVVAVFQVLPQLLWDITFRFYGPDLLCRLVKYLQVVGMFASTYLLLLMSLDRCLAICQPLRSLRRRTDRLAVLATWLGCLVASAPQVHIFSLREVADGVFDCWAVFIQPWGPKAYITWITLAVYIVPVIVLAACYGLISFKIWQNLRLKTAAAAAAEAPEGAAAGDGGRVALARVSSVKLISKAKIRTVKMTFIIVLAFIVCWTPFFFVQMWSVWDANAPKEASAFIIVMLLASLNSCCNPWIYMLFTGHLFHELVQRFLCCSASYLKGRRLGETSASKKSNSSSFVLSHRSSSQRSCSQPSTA

**Q.** With `C=CCN1CCN(C(=O)c2ccc3n2Cc2ccccc2N(C(=O)c2ccc(-c4cccc5ccccc45)c(OC)c2)C3)CC1` [Example 231, (4-Allyl-1-piperazinyl){10-[3-methoxy-4-(1-naphthyl)benzoyl]-10,11-dihydro-5H -pyrrolo[2,1-c][1,4]benzodiazepin-3-yl}methanone] as the compound, how does the inhibition at 0.1 µM read?
**A.** The inhibition at 0.1 µM was 63%.

**Q.** Which inhibition at 0.1 µM does the source give for `Cc1cc(C(=O)N2Cc3ccc(C(=O)NCCN4CCCCC4)n3Cc3ccccc32)ccc1-c1ccccc1C(F)(F)F` [Example 161, 10-{[2-Methyl-2′-(trifluoromethyl)[1,1′-biphenyl]-4-yl]carbonyl}-N-[2-(1-piperidinyl)ethyl]-10,11-dihydro-5H-pyrrolo[2,1-c][1,4]benzodiazepine-3-carboxamide] here?
**A.** Its inhibition at 0.1 µM is 53%.

**Q.** With `COc1cccc(-c2cc(OC)c(C(=O)N3Cc4ccc(C(=O)N5CCN(CCN(C)C)CC5)n4Cc4ccccc43)cc2Cl)c1` [Example 202, {10-[(6-Chloro-3,3′-dimethoxy[1,1′-biphenyl]-4-yl)carbonyl]-10,11-dihydro-5H-pyrrolo[2,1-c][1,4]benzodiazepin-3-yl}{4-[2-(dimethylamino)ethyl]-1-piperazinyl}methanone] as the compound, how does the inhibition at 0.1 µM read?
**A.** The inhibition at 0.1 µM was 73%.

**Q.** For `COc1cccc(-c2ccc(C(=O)N3Cc4ccc(C(=O)N(C)C5CCN(C)C5)n4Cc4ccccc43)cc2C)c1` (stereo not shown) [Example 186, 10-[(3′-Methoxy-2-methyl[1,1′-biphenyl]-4-yl)carbonyl]-N-methyl-N-(1-methyl-3-pyrrolidinyl)-10,11-dihydro-5H-pyrrolo[2,1-c][1,4]benzodiazepine-3-carboxamide], which inhibition at 0.1 µM is on record?
**A.** The inhibition at 0.1 µM was 97%.

**Q.** With `COc1cccc(-c2ccc(C(=O)N3Cc4ccc(C(=O)N5CCN(CCN6CCOCC6)CC5)n4Cc4ccccc43)cc2OC)c1` [Example 211, {10-[(2,3′-Dimethoxy[1,1′-biphenyl]-4-yl)carbonyl]-10,11-dihydro-5H-pyrrolo[2,1-c][1,4]benzodiazepin-3-yl}{4-[2-(4-morpholinyl)ethyl]-1-piperazinyl}methanone] as the compound, how does the inhibition at 0.1 µM read?
**A.** Its inhibition at 0.1 µM is 87%.

**Q.** Which inhibition at 0.1 µM does the source give for `C=CCN1CCN(C(=O)c2ccc3n2Cc2ccccc2N(C(=O)c2ccc(-c4ccccc4C)c(OC)c2)C3)CC1` [Example 225, (4-Allyl-1-piperazinyl){10-[(2-methoxy-2′-methyl[1,1′-biphenyl]-4-yl)carbonyl]-10,11-dihydro-5H-pyrrolo[2,1-c][1,4]benzodiazepin-3-yl}methanone] here?
**A.** The inhibition at 0.1 µM was 87%.

**Q.** For `COc1cccc(-c2ccc(C(=O)N3Cc4ccc(C(=O)N(C)C5CCN(C)CC5)n4Cc4ccccc43)cc2C)c1` [Example 176, 10-[(3′-Methoxy-2-methyl[1,1′-biphenyl]-4-yl)carbonyl]-N-methyl-N-(1-methyl-4-piperidinyl)-10,11-dihydro-5H-pyrrolo[2,1-c][1,4]benzodiazepine-3-carboxamide], which inhibition at 0.1 µM is on record?
**A.** Its inhibition at 0.1 µM is 88%.

**Q.** Which inhibition at 0.1 µM does the source give for `C=CCN1CCN(C(=O)c2ccc3n2Cc2ccccc2N(C(=O)c2ccc(-c4cccc5ccccc45)cc2Cl)C3)CC1` [Example 229, (4-Allyl-1-piperazinyl){10-[2-chloro-4-(1-naphthyl)benzoyl]-10,11-dihydro-5H-pyrrolo[2,1-c][1,4]benzodiazepin-3-yl}methanone] here?
**A.** The inhibition at 0.1 µM was 19%.

**Q.** Which inhibition at 0.1 µM does the source give for `Cc1cc(C(=O)N2Cc3ccc(C(=O)N4CCN(CCN5CCOCC5)CC4)n3Cc3ccccc32)ccc1-c1ccccc1C(F)(F)F` [Example 216, (10-{[2-Methyl-2′-(trifluoromethyl)[1,1′-biphenyl]-4-yl]carbonyl}-10,11-dihydro-5H -pyrrolo[2,1-c][1,4]benzodiazepin-3-yl){4-[2-(4-morpholinyl)ethyl]-1-piperazinyl}methanone] here?
**A.** Its inhibition at 0.1 µM is 82%.

**Q.** Which inhibition at 0.1 µM does the source give for `COc1ccccc1-c1ccc(C(=O)N2Cc3ccc(C(=O)N4CCN(C(C)C)CC4)n3Cc3ccccc32)cc1C` [Example 232, (4-Isopropyl-1-piperazinyl){10-[(2′-methoxy-2-methyl[1,1′-biphenyl]-4-yl)carbonyl]-10,11-dihydro-5H-pyrrolo[2,1-c][1,4]benzodiazepin-3-yl}methanone] here?
**A.** Its inhibition at 0.1 µM is 81%.

**Q.** For `O=C(c1ccc2n1Cc1ccccc1N(C(=O)c1ccc(-c3cccc4ccccc34)cc1Cl)C2)N1CCN(CCN2CCOCC2)CC1` [Example 215, {10-[2-Chloro-4-(1-naphthyl)benzoyl]-10,11-dihydro-5H-pyrrolo[2,1-c][1,4]benzodiazepin-3-yl}{4-[2-(4-morpholinyl)ethyl]-1-piperazinyl}methanone], which inhibition at 0.1 µM is on record?
**A.** The inhibition at 0.1 µM was 26%.

**Q.** Which inhibition at 0.1 µM does the source give for `COc1cc(-c2ccccc2C)c(Cl)cc1C(=O)N1Cc2ccc(C(=O)N3CCN(C(C)C)CC3)n2Cc2ccccc21` [Example 238, {10-[(6-Chloro-3-methoxy-2′-methyl[1,1′-biphenyl]-4-yl)carbonyl]-10,11-dihydro-5H -pyrrolo[2,1-c][1,4]benzodiazepin-3-yl}(4-isopropyl-1-piperazinyl)methanone] here?
**A.** Its inhibition at 0.1 µM is 79%.

**Q.** How did the inhibition at 0.1 µM turn out when `C=CCN1CCN(C(=O)c2ccc3n2Cc2ccccc2N(C(=O)c2ccc(-c4cccc(OC)c4)c(OC)c2)C3)CC1` [Example 228, (4-Allyl-1-piperazinyl){10-[(2,3′-dimethoxy[1,1′-biphenyl]-4-yl)carbonyl]-10,11-dihydro-5H -pyrrolo[2,1-c][1,4]benzodiazepin-3-yl}methanone] was run?
**A.** Its inhibition at 0.1 µM is 77%.

**Q.** For `Cc1ccccc1-c1ccc(C(=O)N2Cc3ccc(C(=O)N4CCN(CCN5CCOCC5)CC4)n3Cc3ccccc32)cc1C` [Example 218, {10-[(2,2′-Dimethyl[1,1′-biphenyl]-4-yl)carbonyl]-10,11-dihydro-5H-pyrrolo[2,1-c][1,4]benzodiazepin-3-yl}{4-[2-(4-morpholinyl)ethyl]-1-piperazinyl}methanone], which inhibition at 0.1 µM is on record?
**A.** Its inhibition at 0.1 µM is 98%.

**Q.** Which inhibition at 0.1 µM does the source give for `Cc1cc(C(=O)N2Cc3ccc(C(=O)N(C)C4CCN(C)C4)n3Cc3ccccc32)ccc1-c1ccccc1C(F)(F)F` (stereo not shown) [Example 194, N-Methyl-N-(1-methyl-3-pyrrolidinyl)-10-{[2-methyl-2′-(trifluoromethyl)[1,1′-biphenyl]-4-yl]carbonyl}-10,11-dihydro-5H-pyrrolo[2,1-c][1,4]benzodiazepine-3-carboxamide] here?
**A.** Its inhibition at 0.1 µM is 96%.

**Q.** With `COc1ccccc1-c1ccc(C(=O)N2Cc3ccc(C(=O)NCCC4CCCN4C)n3Cc3ccccc32)cc1` (stereo not shown) [Example 165, 10-[(2′-Methoxy[1,1′-biphenyl]-4-yl)carbonyl]-N-[2-(1-methyl-2-pyrrolidinyl)ethyl]-10,11-dihydro-5H-pyrrolo[2,1-c][1,4]benzodiazepine-3-carboxamide] as the compound, how does the inhibition at 0.1 µM read?
**A.** Its inhibition at 0.1 µM is 64%.

**Q.** Which inhibition at 0.1 µM does the source give for `COc1cccc(-c2cc(OC)c(C(=O)N3Cc4ccc(C(=O)N(C)C5CCN(C)C5)n4Cc4ccccc43)cc2Cl)c1` (stereo not shown) [Example 191, 10-[(6-Chloro-3,3′-dimethoxy[1,1′-biphenyl]-4-yl)carbonyl]-N-methyl-N-(1-methyl-3-pyrrolidinyl)-10,11-dihydro-5H-pyrrolo[2,1-c][1,4]benzodiazepine-3-carboxamide] here?
**A.** Its inhibition at 0.1 µM is 100%.

**Q.** For `O=C(NCCN1CCCCC1)c1ccc2n1Cc1ccccc1N(C(=O)c1ccc(-c3cccc4ccccc34)cc1Cl)C2` [Example 160, 10-[2-Chloro-4-(1-naphthyl)benzoyl]-N-[2-(1-piperidinyl)ethyl]-10,11-dihydro-5H-pyrrolo[2,1-c][1,4]benzodiazepine-3-carboxamide], which inhibition at 0.1 µM is on record?
**A.** Its inhibition at 0.1 µM is 20%.

**Q.** With `COc1cc(C(=O)N2Cc3ccc(C(=O)N(C)C4CCN(C)CC4)n3Cc3ccccc32)ccc1-c1cccc2ccccc12` [Example 182, 10-[3-Methoxy-4-(1-naphthyl)benzoyl]-N-methyl-N-(1-methyl-4-piperidinyl)-10,11-dihydro-5H-pyrrolo[2,1-c][1,4]benzodiazepine-3-carboxamide] as the compound, how does the inhibition at 0.1 µM read?
**A.** Its inhibition at 0.1 µM is 70%.
